This passage reports GI50 and TGI results from PubChem BioAssay (NCI).

Where “and” joins values, the source holds several entries; their conditions need not be identical. Equal entries are not always repeated.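 Values below derive from 48-hour exposures of cells grown in 96-well plates, with endpoints linearly interpolated between the two concentrations bracketing the appropriate inhibition level. GI50: concentration for 50% inhibition of growth. TGI is the concentration that stops growth completely.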

Some test systems named below: OVCAR-3 ovarian; COLO 205 colon; SF-295 CNS; A549 NSCLC; A498 renal; OVCAR-4 ovarian; SNB-75 CNS; IGROV1 ovarian.
Assay in all cases: growth of human tumour cells (NCI), 48 h

`CC1(C)N=C(N)N=C(N)N1c1ccc(OCC(=O)Nc2ccc(S(=O)(=O)F)cc2Cl)c(Cl)c1`: the GI50 in the test with OVCAR-3 ovarian was 5.34 µM; with COLO 205 colon, 21.1 µM; in the test with SF-295 CNS, 5.23 µM; with A549 NSCLC, 2.5 µM; with A498 renal it was 13.3 µM; in the test on OVCAR-4 ovarian, greater than 100 µM. In addition, the GI50 with SNB-75 CNS is 5.72 µM; in the test on IGROV1 ovarian it was 0.42 µM. The TGI in the test with OVCAR-3 ovarian, in the test on COLO 205 colon, in the test with SF-295 CNS, in the test with A549 NSCLC, in the test with A498 renal and in the test with OVCAR-4 ovarian was greater than 100 µM in each case. In addition, the TGI in the test with SNB-75 CNS and with IGROV1 ovarian was greater than 100 µM in each case.

For `CN1C(=O)C(N=Nc2ccc([N+](=O)[O-])cc2)SC1=S` (stereo unspecified), the GI50 is 2.7 µM and 10.9 µM with OVCAR-3 ovarian; 4 µM and 10 µM in the test on COLO 205 colon; 1.62 µM and 3.04 µM with SF-295 CNS; 5.78 µM and 14.1 µM with A549 NSCLC; 4.1 µM and 4.16 µM with A498 renal; 6.35 µM and 9.5 µM in the test on OVCAR-4 ovarian. For the same molecule, the GI50 with SNB-75 CNS is 3.23 µM and 16.1 µM; with IGROV1 ovarian, 1.99 µM and 11.4 µM. For the same molecule, the TGI in the test with OVCAR-3 ovarian is 12.9 µM and 71.9 µM; in the test with COLO 205 colon it was 18 µM and 23 µM; in the test with SF-295 CNS, 6.27 µM and 24.9 µM; in the test with A549 NSCLC, greater than 100 µM; in the test with A498 renal, 18.3 µM and 51 µM; in the test on OVCAR-4 ovarian it was greater than 100 µM. Moreover, the TGI with SNB-75 CNS is 67.2 µM and 89.1 µM.

With `CC1(C)CC[C@]23CC[C@]4(C)[C@H](CC[C@@H]5[C@@]6(C)CCCNC(C)(C)[C@@H]6CC[C@]54C)[C@H]2[C@H]1OC3`, the GI50 in the test on OVCAR-3 ovarian was 1.62 µM; with COLO 205 colon, 1.28 µM; in the test with SF-295 CNS, 1.7 µM; with A549 NSCLC it was 1.81 µM; in the test with A498 renal it was 1.68 µM; in the test on OVCAR-4 ovarian, 1.65 µM. Besides, the GI50 in the test on SNB-75 CNS is 1.5 µM; with IGROV1 ovarian, 1.79 µM. In addition, the TGI stood at 3.1 µM in the test on OVCAR-3 ovarian; 2.68 µM with COLO 205 colon; 3.19 µM in the test with SF-295 CNS; 3.43 µM in the test on A549 NSCLC; 3.67 µM with A498 renal; 3.12 µM in the test with OVCAR-4 ovarian. The TGI in the test with SNB-75 CNS is 2.94 µM; in the test on IGROV1 ovarian, 3.48 µM.

As to `CCOC(=O)c1c(C)n([O-])c2cc(F)c(F)cc2[n+]1=O`, the GI50 with OVCAR-3 ovarian is 1.1 µM; with COLO 205 colon, 1.94 µM; with SF-295 CNS, 1.74 µM; with A549 NSCLC, 6.78 µM; in the test on A498 renal, 15.9 µM; in the test with OVCAR-4 ovarian, 1.72 µM. Moreover, the results for the GI50 in the test on SNB-75 CNS and in the test with IGROV1 ovarian were 1.91 µM and 0.491 µM, respectively. The TGI in the test on OVCAR-3 ovarian stood at 2.42 µM; with COLO 205 colon, 4.54 µM; with SF-295 CNS, 3.41 µM; in the test with A549 NSCLC, 26 µM; in the test with A498 renal, 30 µM; in the test on OVCAR-4 ovarian it was 3.92 µM. This molecule also had a TGI in the test with SNB-75 CNS of 3.54 µM.

Consider `Cc1ccc(C2=NN(c3ccc(S(=O)(=O)NC(=O)NCc4ccccc4)cc3)C(c3ccc(N(C)C)cc3)C2)c(C)c1` (stereo unspecified), for which the GI50 with OVCAR-3 ovarian was 2.24 µM; in the test on COLO 205 colon, 3.71 µM; in the test with A549 NSCLC, 3.46 µM; in the test on A498 renal, 3.08 µM; with OVCAR-4 ovarian, 3.54 µM; with SNB-75 CNS it was 2.44 µM. In the test with IGROV1 ovarian, the GI50 was 4.31 µM. Moreover, the TGI is 4.95 µM in the test on OVCAR-3 ovarian; 10.4 µM with COLO 205 colon; 16.4 µM in the test with A549 NSCLC; 12.5 µM in the test with A498 renal; greater than 100 µM in the test with OVCAR-4 ovarian; greater than 100 µM in the test with SNB-75 CNS. Also, the TGI in the test on IGROV1 ovarian came out at 13.6 µM.

With `COC(=O)C1c2cc3c(c(O)c2CCC1(C)O)C(=O)c1c(O)cc2c(c1C3=O)OC1OC2(C)C(O)C(N(C)C)C1O` (stereo unspecified), the TGI in the test with OVCAR-3 ovarian was 1.62 µM; in the test with COLO 205 colon, 1.73 µM; with SF-295 CNS it was 1.87 µM; with A549 NSCLC, 0.916 µM; with OVCAR-4 ovarian, 1.45 µM; in the test on SNB-75 CNS, 1.37 µM. The TGI with IGROV1 ovarian turned out to be 2.35 µM.

With `Cc1cc(S(=O)(=O)Nc2nc3ccccc3c(=O)n2Cc2ccco2)c(S)cc1Cl`, the GI50 is 30.5 µM with OVCAR-3 ovarian; greater than 100 µM in the test with COLO 205 colon; 31.8 µM with SF-295 CNS; 48 µM with A549 NSCLC; 33.1 µM in the test on A498 renal; 87.7 µM with OVCAR-4 ovarian. For the same molecule, the GI50 in the test on SNB-75 CNS is 97 µM; in the test on IGROV1 ovarian, 36.9 µM. Also, the TGI in the test on OVCAR-3 ovarian, in the test with COLO 205 colon, in the test with SF-295 CNS, in the test on A549 NSCLC, in the test on A498 renal and in the test on OVCAR-4 ovarian was greater than 100 µM in each case. For the same molecule, the TGI with SNB-75 CNS and in the test with IGROV1 ovarian was greater than 100 µM throughout.

For the molecule `CCOC(=O)c1c(-c2ccccc2)n2c(=O)cc(C)c3c(O)c(O)cc1c32`, the GI50 with OVCAR-3 ovarian was 2.38 µM; with COLO 205 colon it was 11 µM; in the test on SF-295 CNS, 6.75 µM; in the test with A549 NSCLC it was 5.46 µM; with A498 renal, 13 µM; in the test with OVCAR-4 ovarian, 2.46 µM. The GI50 in the test on SNB-75 CNS is 8.95 µM; in the test on IGROV1 ovarian, 4.99 µM. Also, the TGI was 17 µM in the test on OVCAR-3 ovarian; 28.2 µM in the test with COLO 205 colon; greater than 100 µM in the test on SF-295 CNS; 24.6 µM in the test on A549 NSCLC; 37.6 µM in the test with A498 renal; 11.4 µM in the test on OVCAR-4 ovarian. The TGI in the test on SNB-75 CNS worked out at 88.1 µM; in the test with IGROV1 ovarian it was 19.2 µM.

Consider `Clc1nc(Cl)c2ncn(-c3ccccc3)c2n1`, for which the GI50 in the test with OVCAR-3 ovarian is 1.69 µM; in the test on COLO 205 colon it was 3.4 µM; in the test with SF-295 CNS, 10.3 µM; in the test on A549 NSCLC, 12.9 µM; in the test with A498 renal, 12 µM; in the test with OVCAR-4 ovarian, 10.5 µM. Besides, the GI50 in the test on SNB-75 CNS is 2.93 µM; with IGROV1 ovarian, 1.66 µM. For the same molecule, the TGI with OVCAR-3 ovarian was 3.46 µM; in the test on COLO 205 colon, 13.5 µM; with SF-295 CNS, 23 µM; in the test with A549 NSCLC, 29.8 µM; in the test with A498 renal, 25 µM; in the test on OVCAR-4 ovarian, 24.5 µM. Moreover, the TGI in the test with SNB-75 CNS is 13.9 µM; with IGROV1 ovarian, 3.38 µM.
